Laboratory results from patent US9883999B2, “Method for solubilizing rutin with polyhydroxy alkyl alcohols” (Colgate-Palmolive Company, priority 2013, dated 2018).

Tests used:
[1] = Initial evaluation of solubilizing agents for rutin by relative clarity of the solutions; format: physicochemical; settings: 0.5% rutin added to 10 g of each test solubilizer; propylene glycol best, sorbitol worst
[2] = tested on: exfoliated human oral mucosal cells; experiment: Protective (anti-oxidation) efficacy of rutin solutions by cell staining method (Janus Green B, H2O2/Fe2+ challenge); format: cell-based; settings: larger ΔE*a,b = stronger protection
Method: Rutin is dissolved in water to prepare a range of different levels of rutin solution. The protective efficacy of rutin solutions is measured using a cell staining method. In this method, the morphology of exfoliated human oral mucosal cells contacted with various concentrations of rutin is disclosed with Janus Green B dye. Photographic digital images are obtained using a light microscope with a 40× or 100× objective lenses connected to a digital camera. The color difference between the cell plasma and the area outside the cell, ΔE*a,b, is determined using the CIE L*a*b* system. The larger the ΔE*a,b value, the stronger the protective efficacy. The method includes the following steps: • 1. Human mucosal cells are collected and mixed with 1 mL Ringer solution, 0.5 mL Fe^2+ and 0.5 mL HAc—Ac buffer in a 5 mL Eppendorf tube. • 2. The cell suspension is then equally divided into two tubes. To the first tube is added 0.2 mL of 20 mM H2O2. To the second tube is added 0.2 mL Ringer solution. • 3. After 10 min, one drop of the above treated samples is placed on a microscope slide and stained with one drop of 0.1% Janus Green B for 1 h or longer. • 4. After staining, the cells are observed under the light microscope. Digital images are also acquired and ΔE*a, b is measured.

**Q.** For `C[C@@H]1O[C@@H](OC[C@H]2O[C@@H](Oc3c(-c4ccc(O)c(O)c4)oc4cc(O)cc(O)c4c3=O)[C@H](O)[C@@H](O)[C@@H]2O)[C@H](O)[C@H](O)[C@H]1O` [rutin, 2-(3,4-dihydroxyphenyl)-5,7-dihydroxy-3-[α-L-rhamnopyranosyl-(1→6)-β-D-glucopyranosyloxy]-4H-chromen-4-one], which “solubility capability of the humectants, ranked” value [1] is on record?
**A.** propylene glycol>>glycerin>PEG600≈PEG-40 hydrogenated castor oil>sorbitol

**Q.** And the “Protective efficacy (ΔE*a, b)” value ([2]; rutin concentration 0.5 mM in water)?
**A.** 5.5

**Q.** And the “Protective efficacy (ΔE*a, b)” value ([2]; rutin concentration 1.0 mM in water)?
**A.** 24.7

**Q.** What about the “Protective efficacy (ΔE*a, b)” value ([2]; rutin concentration 2.0 mM in water) of the same molecule?
**A.** 38.9
